Holding throughout (assay): Cysteine liganding, probe competition
Type in all cases: binding

Test [1] addresses T1, NAA15 N-alpha-acetyltransferase 15, NatA auxiliary subun (Homo sapiens, UniProt Q9BXJ9).
T1 construct: Cells were resuspended in cold PBS on ice and sonicated with a probe sonicator to achieve lysis; endogenous in cells
T1 sequence (Q9BXJ9 1-866): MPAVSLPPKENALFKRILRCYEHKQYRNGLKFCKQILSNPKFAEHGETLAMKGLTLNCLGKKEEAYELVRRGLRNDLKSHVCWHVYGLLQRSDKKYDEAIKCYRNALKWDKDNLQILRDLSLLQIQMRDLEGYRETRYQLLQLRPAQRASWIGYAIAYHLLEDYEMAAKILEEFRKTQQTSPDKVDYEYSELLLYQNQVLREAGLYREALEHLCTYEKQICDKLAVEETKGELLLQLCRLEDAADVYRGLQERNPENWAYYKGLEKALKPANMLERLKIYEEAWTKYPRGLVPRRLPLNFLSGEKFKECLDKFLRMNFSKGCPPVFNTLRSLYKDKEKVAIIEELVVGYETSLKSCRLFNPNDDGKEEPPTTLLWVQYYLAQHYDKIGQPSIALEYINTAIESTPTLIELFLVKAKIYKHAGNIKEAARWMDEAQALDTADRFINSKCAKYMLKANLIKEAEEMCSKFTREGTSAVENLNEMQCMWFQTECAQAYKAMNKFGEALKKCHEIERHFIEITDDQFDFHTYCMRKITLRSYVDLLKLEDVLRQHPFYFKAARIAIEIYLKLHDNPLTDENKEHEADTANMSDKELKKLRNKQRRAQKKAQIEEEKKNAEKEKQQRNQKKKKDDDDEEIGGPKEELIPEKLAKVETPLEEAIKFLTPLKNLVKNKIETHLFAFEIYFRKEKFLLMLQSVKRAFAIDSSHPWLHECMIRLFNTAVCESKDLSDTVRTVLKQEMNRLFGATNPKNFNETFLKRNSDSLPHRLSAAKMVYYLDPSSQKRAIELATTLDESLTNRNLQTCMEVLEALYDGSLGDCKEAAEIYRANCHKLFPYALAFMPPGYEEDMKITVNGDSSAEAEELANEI
The method in brief: (§1)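 Steps: sonicate cells in cold PBS; treat 5 mg/ml lysate with compound (25° C, 1 hr); add desthiobiotin iodoacetamide probe from a 10 mM stock (25° C, 1 hr); precipitate, reduce, alkylate, digest with trypsin; capture labelled peptides on streptavidin for analysis.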

The target in test [2] is T2, RING1 E3 ubiquitin-protein ligase RING1 (Homo sapiens, UniProt Q06587).
T2 construct: Cells were resuspended in cold PBS on ice and sonicated with a probe sonicator to achieve lysis; endogenous in cells
T2 sequence (Q06587 1-406): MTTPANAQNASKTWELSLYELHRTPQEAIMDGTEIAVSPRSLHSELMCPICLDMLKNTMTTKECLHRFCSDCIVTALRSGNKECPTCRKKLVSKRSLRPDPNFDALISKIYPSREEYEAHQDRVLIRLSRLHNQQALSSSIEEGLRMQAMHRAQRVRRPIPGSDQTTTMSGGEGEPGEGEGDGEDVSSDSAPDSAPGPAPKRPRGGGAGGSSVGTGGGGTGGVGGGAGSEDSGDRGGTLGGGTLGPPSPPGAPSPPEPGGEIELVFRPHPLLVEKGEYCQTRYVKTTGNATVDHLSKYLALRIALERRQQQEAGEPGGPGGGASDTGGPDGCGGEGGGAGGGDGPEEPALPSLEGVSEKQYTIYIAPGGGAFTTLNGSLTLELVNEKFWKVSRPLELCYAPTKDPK
The method in brief: as §1

Test [3] concerns the target T3, E3 ubiquitin-protein ligase pellino homolog 1 (PELI1) (Homo sapiens, UniProt Q96FA3).
T3 construct: Cells were resuspended in cold PBS on ice and sonicated with a probe sonicator to achieve lysis; endogenous in cells
The method in brief:
as §1

T3 sequence (Q96FA3 whole entry): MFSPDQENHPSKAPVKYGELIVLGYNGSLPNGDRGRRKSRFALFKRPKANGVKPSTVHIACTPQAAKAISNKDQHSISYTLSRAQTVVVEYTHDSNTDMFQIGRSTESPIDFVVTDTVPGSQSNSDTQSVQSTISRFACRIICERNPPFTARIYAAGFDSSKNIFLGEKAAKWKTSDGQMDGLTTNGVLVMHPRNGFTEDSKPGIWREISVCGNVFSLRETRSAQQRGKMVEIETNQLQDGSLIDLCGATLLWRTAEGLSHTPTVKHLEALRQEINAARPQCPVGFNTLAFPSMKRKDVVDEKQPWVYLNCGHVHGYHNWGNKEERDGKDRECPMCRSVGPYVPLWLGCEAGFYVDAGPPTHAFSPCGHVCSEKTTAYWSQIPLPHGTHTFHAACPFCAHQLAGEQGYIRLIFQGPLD

Turning to `COc1ccc2c(c1)CCCN2C(=O)CCl` [KB02], the Liganded result in test [1] (NAA15 Res# 817, uniprot Q9BXJ9) is “YES”; in test [2] (RING1 Res# 72, uniprot Q06587), “YES”.
Regarding `C=CC(=O)N(c1ccccc1)c1ccc(Br)cc1` [KB05], the inhibition at 100 µM in test [3] (read-out: KB05_100 uM_percent_inhibition) stood at 2%.
`O=C(CCl)Nc1cc(C(F)(F)F)cc(C(F)(F)F)c1` [KBO3]: in test [1] (uniprot Q9BXJ9), the “100 Max” value is recorded as −21.23, the 100 ave is −31.6767, the “500 Max” value was found to be 14.66 and the 500 ave was 14.66. Further, the Liganded entry in test [2] (RING1 Res# 51, uniprot Q06587) is reported as “YES”. The Liganded entry in test [2] (RING1 Res# 72, uniprot Q06587) is listed as “YES”. In addition, in test [2] (uniprot Q06587), the “100 Max” value stood at 18.1 and the 100 ave stood at 0.5. For the same compound, the “KB03_100 uM_percent_inhibition” value in test [3] (100 uM) was 57%.

The record behind these values is US20200239530A1, “COMPOUNDS AND METHODS OF MODULATING PROTEIN DEGRADATION” (Vividion Therapeutics, Inc., priority 2017, published 2020).
